# Assay: Solubility of polymerizable fluorine-containing sulfonic acid onium salts in PGMEA
# Settings: amount (g) of polymerizable monomer dissolved in 100 g of PGMEA
row,Compound,Solubility [g/100 g]
1,"C=C(COCCC(F)(F)C(F)(F)S(=O)(=O)[O-])C(=O)OC1CC2CC1CC2CC(OC(C)=O)(C(F)(F)F)C(F)(F)F.c1ccc(-[s+]2c3ccccc3c3ccccc32)cc1 (stereo not shown) [PAG-2, Phenyldibenzothiophenium 4-[2-(3,3,3-trifluoro-2-acetyloxy-2-(trifluoromethyl)propyl)bicyclo[2.2.1]hepta-2-yloxycarbonyl-2-methyleneethoxy]-1,1,2,2-tetrafluorobutanesulfonate]",50
2,"C=C(COC(CCCC)C(F)(F)S(=O)(=O)[O-])C(=O)Oc1ccc(C(O)(C(F)(F)F)C(F)(F)F)cc1.Cc1ccc([S+](c2ccc(C)cc2)c2ccc(C)cc2)cc1 (stereo not shown) [PAG-11, Tri-p-tolylsulfonium 2-[4-(2,2,2-trifluoro-1-hydroxy-1-(trifluoromethyl)ethylphenoxycarbonyl)-2-methylene-ethoxy]-1,1-difluorohexanesulfonate]",45
3,"C=C(COCC(F)(F)S(=O)(=O)O)C(=O)OC1CCOC1=O (stereo not shown) [PAG-1, Triphenylsulfonium 2-[2-(2-oxotetrahydrofuran-3-yloxycarbonyl)-2-methyleneethoxy]-1,1-difluoroethanesulfonate]",38
4,"Triphenylsulfonium 2-[2-(1,1,1-trifluoro-2-hydroxy-2-(trifluoromethyl)penta-5-yloxycarbonyl)-2-methyleneethoxy]-1,1-difluoroethanesulfonate [PAG-13]",47

# The remaining lines, values ahead:
row,Solubility [g/100 g],Compound
1,42,C=C(COCCC(F)(F)C(F)(F)S(=O)(=O)O)C(=O)Oc1ccc2sc(=O)oc2c1 [PAG-8]
2,55,"C=C(COCC(F)(F)S(=O)(=O)O)C(=O)OC1CC(C(O)(C(F)(F)F)C(F)(F)F)CC(C(O)(C(F)(F)F)C(F)(F)F)C1 (stereo not shown) [PAG-3, Diphenyl-p-tolylsulfonium 2-[2-(3,5-bis(hexafluoro-2-hydroxypropan-2-yl)cyclohexyloxycarbonyl)-2-methyleneethoxy]-1,1-difluoroethanesulfonate]"
3,42,"C=C(COCCCC(F)(F)S(=O)(=O)O)C(=O)OC1CC2CC1C1COC(=O)C21 (stereo not shown) [PAG-15, [(4-trifluoromethyl)phenyl]diphenylsulfonium 4-(4-oxa-tricyclo[5.2.1.0(2,6)]decan-3-on-8-yloxycarbonyl-2-methylene-ethoxy)-1,1-difluorobutanesulfonate]"
